Test system: MV-4-11 cells
Assay: Gene expression microarray analysis (Affymetrix PrimeView) and GSEA
Format: cell-based, human
Parameters: RFU PODN (11730768_x_at) / Fold change /veh PODN (11730768_x_at) / RFU LINC00158 (11744669_a_at) / Fold change /veh LINC00158 (11744669_a_at) / RFU DUSP10 (11751237_a_at) / Fold change /veh DUSP10 (11751237_a_at) / RFU ID3 (11757404_x_at) / Fold change /veh ID3 (11757404_x_at) / RFU PLEKHG5 (11737974_s_at) / Fold change /veh PLEKHG5 (11737974_s_at) / RFU LRRC4B (11730491_at) / Fold change /veh LRRC4B (11730491_at) / RFU GIMAP4 (11747438_a_at) / Fold change /veh GIMAP4 (11747438_a_at) / RFU KRT8 (11758183_x_at) / Fold change /veh KRT8 (11758183_x_at) / RFU CNN1 (11734310_a_at) / Fold change /veh CNN1 (11734310_a_at) / RFU VPS37D (11726825_at) / Fold change /veh VPS37D (11726825_at) / RFU C10orf10 (11716522_x_at) / Fold change /veh C10orf10 (11716522_x_at) / RFU KIR2DL2 /// KIR2DL4 /// KIR2DL5A /// KIR2DL5B /// KIR2DS1 /// KIR2DS2 /// KIR2DS3 /// KIR2DS4 /// KIR3DL3 /// KIR3DL3 /// KIR3DS1 (11738374_at) / Fold change /veh KIR2DL2 /// KIR2DL4 /// KIR2DL5A /// KIR2DL5B /// KIR2DS1 /// KIR2DS2 /// KIR2DS3 /// KIR2DS4 /// KIR3DL3 /// KIR3DL3 /// KIR3DS1 (11738374_at) / RFU C1QL1 (11718748_at) / Fold change /veh C1QL1 (11718748_at) / RFU TMPRSS4 (11747572_a_at) / Fold change /veh TMPRSS4 (11747572_a_at) / RFU HAMP (11756126_x_at) / Fold change /veh HAMP (11756126_x_at) / RFU RNFT2 (11725882_a_at) / Fold change /veh RNFT2 (11725882_a_at) / RFU NR4A2 (11747474_a_at) / Fold change /veh NR4A2 (11747474_a_at) / RFU ABCC12 (11746883_a_at) / Fold change /veh ABCC12 (11746883_a_at) / RFU TMEM136 (11760407_x_at) / Fold change /veh TMEM136 (11760407_x_at) / RFU CLDN22 /// WWC2 (11732394_at) / Fold change /veh CLDN22 /// WWC2 (11732394_at) / RFU HLA-DPB1 (11760878_x_at) / Fold change /veh HLA-DPB1 (11760878_x_at) / RFU SPINT1 (11716480_a_at) / Fold change /veh SPINT1 (11716480_a_at) / RFU GAP43 (11754022_s_at) / Fold change /veh GAP43 (11754022_s_at) / RFU A4GNT (11735810_at) / Fold change /veh A4GNT (11735810_at) / RFU PRB3 (11715151_x_at) / Fold change /veh PRB3 (11715151_x_at) / RFU TUBB4B (11761932_at) / Fold change /veh TUBB4B (11761932_at) / RFU CAPN14 (11732068_a_at) / Fold change /veh CAPN14 (11732068_a_at) / RFU TMCC2 (11721928_a_at) / Fold change /veh TMCC2 (11721928_a_at) / RFU IRGQ (11745062_a_at) / Fold change /veh IRGQ (11745062_a_at) / RFU FAM174B (11720279_a_at) / Fold change /veh FAM174B (11720279_a_at) / RFU TMPRSS4 (11748680_a_at) / Fold change /veh TMPRSS4 (11748680_a_at) / RFU FAM212B (11763350_a_at) / Fold change /veh FAM212B (11763350_a_at) / RFU PLEKHG5 (11743358_a_at) / Fold change /veh PLEKHG5 (11743358_a_at) / RFU ZSCAN30 (11745921_a_at) / Fold change /veh ZSCAN30 (11745921_a_at) / RFU CMKLR1 (11741424_a_at) / Fold change /veh CMKLR1 (11741424_a_at) / RFU LOC101060620 /// MAPK8IP1 (11723275_at) / Fold change /veh LOC101060620 /// MAPK8IP1 (11723275_at) / RFU SPTSSB (11747773_x_at) / Fold change /veh SPTSSB (11747773_x_at) / RFU PRSS12 (11739890_at) / Fold change /veh PRSS12 (11739890_at) / RFU BIN1 (11741810_x_at) / Fold change /veh BIN1 (11741810_x_at) / RFU WNT11 (11732464_a_at) / Fold change /veh WNT11 (11732464_a_at) / RFU C10orf10 (11716521_a_at) / Fold change /veh C10orf10 (11716521_a_at) / RFU C5orf56 (11738089_at) / Fold change /veh C5orf56 (11738089_at) / RFU CYB561 (11721691_x_at) / Fold change /veh CYB561 (11721691_x_at) / RFU ANKRD19P (11752326_a_at) / Fold change /veh ANKRD19P (11752326_a_at) / RFU OR2T12 /// OR2T33 /// OR2T8 (11738714_s_at) / Fold change /veh OR2T12 /// OR2T33 /// OR2T8 (11738714_s_at) / RFU VCAN (11748164_a_at) / Fold change /veh VCAN (11748164_a_at) / RFU JSRP1 (11732532_at) / Fold change /veh JSRP1 (11732532_at) / RFU KRTAP10-11 (11738290_x_at) / Fold change /veh KRTAP10-11 (11738290_x_at) / RFU MYO3A (11730013_a_at) / Fold change /veh MYO3A (11730013_a_at) / RFU EBF3 (11725865_a_at) / Fold change /veh EBF3 (11725865_a_at) / RFU CAMK2N1 (11719241_x_at) / Fold change /veh CAMK2N1 (11719241_x_at) / RFU C5orf56 (11738088_a_at) / Fold change /veh C5orf56 (11738088_a_at) / RFU OLFML3 (11715873_a_at) / Fold change /veh OLFML3 (11715873_a_at) / RFU LOC100653217 /// NTM (11731650_a_at) / Fold change /veh LOC100653217 /// NTM (11731650_a_at) / RFU MAPK11 (11762145_a_at) / Fold change /veh MAPK11 (11762145_a_at) / RFU FIZ1 (11724087_x_at) / Fold change /veh FIZ1 (11724087_x_at) / RFU OASL (11726364_x_at) / Fold change /veh OASL (11726364_x_at) / RFU SOX15 (11748057_x_at) / Fold change /veh SOX15 (11748057_x_at) / RFU CD79A (11719716_a_at) / Fold change /veh CD79A (11719716_a_at) / RFU HIST1H1D (11736915_at) / Fold change /veh HIST1H1D (11736915_at) / RFU CASKIN2 (11723855_a_at) / Fold change /veh CASKIN2 (11723855_a_at) / RFU LOC730098 (11760151_x_at) / Fold change /veh LOC730098 (11760151_x_at) / RFU OR4N2 (11742367_at) / Fold change /veh OR4N2 (11742367_at) / RFU PRRT2 (11749266_a_at) / Fold change /veh PRRT2 (11749266_a_at) / RFU SNX32 (11753110_a_at) / Fold change /veh SNX32 (11753110_a_at) / RFU CDHR5 (11726645_a_at) / Fold change /veh CDHR5 (11726645_a_at) / RFU RCAN1 (11760418_a_at) / Fold change /veh RCAN1 (11760418_a_at) / RFU FAM167A (11723789_a_at) / Fold change /veh FAM167A (11723789_a_at) / RFU FAM26E (11764081_at) / Fold change /veh FAM26E (11764081_at) / RFU ISYNA1 (11749810_s_at) / Fold change /veh ISYNA1 (11749810_s_at) / RFU ACY1 (11761880_at) / Fold change /veh ACY1 (11761880_at) / RFU 11764098_at / Fold change /veh 11764098_at / RFU SAMD14 (11745864_x_at) / Fold change /veh SAMD14 (11745864_x_at) / RFU NPB (11741838_a_at) / Fold change /veh NPB (11741838_a_at) / RFU TMPRSS6 (11731388_a_at) / Fold change /veh TMPRSS6 (11731388_a_at) / RFU KRTAP10-2 (11738614_at) / Fold change /veh KRTAP10-2 (11738614_at) / RFU ARHGAP8 /// PRR5-ARHGAP8 (11727945_x_at) / Fold change /veh ARHGAP8 /// PRR5-ARHGAP8 (11727945_x_at) / RFU KRTAP5-7 /// NADSYN1 (11734609_at) / Fold change /veh KRTAP5-7 /// NADSYN1 (11734609_at) / RFU RASL12 (11751679_a_at) / Fold change /veh RASL12 (11751679_a_at) / RFU CDKN2B (11736163_a_at) / Fold change /veh CDKN2B (11736163_a_at) / RFU PRF1 (11729649_at) / Fold change /veh PRF1 (11729649_at) / RFU, ZNF638 /// ZNF638-IT1 / Fold change vs veh, ZNF638 /// ZNF638-IT1 / RFU, PANK3 / Fold change vs veh, PANK3 / RFU, SH3YL1 / Fold change vs veh, SH3YL1 / RFU, ZEB2 / Fold change vs veh, ZEB2 / RFU, NRIP1 / Fold change vs veh, NRIP1 / RFU, PTTG1IP / Fold change vs veh, PTTG1IP / RFU, CAPN2 / Fold change vs veh, CAPN2 / RFU, MED14 / Fold change vs veh, MED14 / RFU, SNORA58 / Fold change vs veh, SNORA58 / RFU, C1orf63 / Fold change vs veh, C1orf63 / RFU, LRRFIP1 / Fold change vs veh, LRRFIP1 / RFU, NDUFAF7 / Fold change vs veh, NDUFAF7 / RFU, SLC12A2 / Fold change vs veh, SLC12A2 / RFU, IBTK / Fold change vs veh, IBTK / RFU, ESF1 / Fold change vs veh, ESF1 / Fold change vs veh, TMEM50B / RFU, TAOK1 / Fold change vs veh, TAOK1 / RFU, ACBD3 / Fold change vs veh, ACBD3 / RFU, TMA16 / Fold change vs veh, TMA16 / RFU, RWDD3 / Fold change vs veh, RWDD3 / RFU, BCAT1 / Fold change vs veh, BCAT1 / RFU, EDEM3 / Fold change vs veh, EDEM3 / RFU, TMEM33 / Fold change vs veh, TMEM33 / RFU, WDR75 / Fold change vs veh, WDR75 / RFU, AHCTF1 / Fold change vs veh, AHCTF1 / RFU, TFRC / Fold change vs veh, TFRC / RFU, ZDHHC17 / Fold change vs veh, ZDHHC17 / RFU, NOM1 / Fold change vs veh, NOM1 / RFU, ARL8B / Fold change vs veh, ARL8B / RFU, ZBTB11 / Fold change vs veh, ZBTB11 / RFU, TAMM41 / Fold change vs veh, TAMM41 / RFU, KIAA1704 /// LOC100996395 / Fold change vs veh, KIAA1704 /// LOC100996395 / RFU, ING1 / Fold change vs veh, ING1 / RFU, TRMT61B / Fold change vs veh, TRMT61B / RFU, FUBP3 / Fold change vs veh, FUBP3 / RFU, TP53 / Fold change vs veh, TP53 / RFU, TNKS2 / Fold change vs veh, TNKS2 / RFU, ZFP14 / Fold change vs veh, ZFP14 / RFU, ACTR2 / Fold change vs veh, ACTR2 / RFU, PPP3R1 / Fold change vs veh, PPP3R1 / RFU, PIK3R1 / Fold change vs veh, PIK3R1 / RFU, HNRNPA1 / Fold change vs veh, HNRNPA1 / RFU, RNF170 / Fold change vs veh, RNF170 / RFU, ZNF28 / Fold change vs veh, ZNF28 / RFU, RNGTT / Fold change vs veh, RNGTT / RFU, OGT / Fold change vs veh, OGT / RFU, BRD1 / Fold change vs veh, BRD1 / RFU, MARS / Fold change vs veh, MARS / RFU, ZNF655 / Fold change vs veh, ZNF655 / RFU, FAHD1 / Fold change vs veh, FAHD1 / RFU, BDP1 / Fold change vs veh, BDP1 / RFU, LRRCC1 / Fold change vs veh, LRRCC1 / RFU, ARID1A / Fold change vs veh, ARID1A / RFU, ZNF146 / Fold change vs veh, ZNF146 / RFU, ZNF330 / Fold change vs veh, ZNF330 / RFU, GPN3 / Fold change vs veh, GPN3 / RFU, C9orf123 / Fold change vs veh, C9orf123 / RFU, N4BP2L2 / Fold change vs veh, N4BP2L2 / RFU, ARFIP1 / Fold change vs veh, ARFIP1 / RFU, FAM179B / Fold change vs veh, FAM179B / RFU, BCL10 / Fold change vs veh, BCL10 / RFU, UHRF1BP1L / Fold change vs veh, UHRF1BP1L / RFU, BET1 / Fold change vs veh, BET1 / RFU, CNOT2 / Fold change vs veh, CNOT2 / RFU, ZNF268 / Fold change vs veh, ZNF268 / Fold change vs veh, ZNF507 / RFU, DGCR2 / Fold change vs veh, DGCR2 / RFU, WDSUB1 / Fold change vs veh, WDSUB1 / Fold change vs veh, HSP90B1 /// MIR3652 / RFU, ADSS / Fold change vs veh, ADSS / RFU, GK / Fold change vs veh, GK / RFU, ZNF148 / Fold change vs veh, ZNF148 / RFU, TAF9 / Fold change vs veh, TAF9 / RFU, SLC1A5 / Fold change vs veh, SLC1A5 / RFU, SLMO2 / Fold change vs veh, SLMO2 / RFU, ABCC4 / Fold change vs veh, ABCC4 / RFU, LOC101060439 /// RAP1B / Fold change vs veh, LOC101060439 /// RAP1B / RFU, RFX7 / Fold change vs veh, RFX7 / RFU, GTPBP10 / Fold change vs veh, GTPBP10 / RFU, CNEP1R1 / Fold change vs veh, CNEP1R1 / RFU, BIVM-ERCC5 /// ERCC5 / Fold change vs veh, BIVM-ERCC5 /// ERCC5 / RFU, ILF3 / Fold change vs veh, ILF3 / RFU 11762660_at / Fold change /veh 11762660_at / RFU VCAN (11757783_s_at) / Fold change /veh VCAN (11757783_s_at) / RFU DDX43 (11728927_at) / Fold change /veh DDX43 (11728927_at) / RFU KRT8 (11758188_x_at) / Fold change /veh KRT8 (11758188_x_at) / RFU NKD1 (11759106_at) / Fold change /veh NKD1 (11759106_at) / RFU SRD5A1 (11742802_a_at) / Fold change /veh SRD5A1 (11742802_a_at) / RFU TPSAB1 /// TPSB2 (11721975_s_at) / Fold change /veh TPSAB1 /// TPSB2 (11721975_s_at) / RFU GSTM3 (11746129_a_at) / Fold change /veh GSTM3 (11746129_a_at) / RFU IL23R (11737362_x_at) / Fold change /veh IL23R (11737362_x_at) / RFU TMEM51 (11727254_a_at) / Fold change /veh TMEM51 (11727254_a_at) / RFU PIWIL2 (11732686_x_at) / Fold change /veh PIWIL2 (11732686_x_at) / RFU ORM1 (11744905_x_at) / Fold change /veh ORM1 (11744905_x_at) / RFU CCDC152 (11743942_at) / Fold change /veh CCDC152 (11743942_at) / RFU ECM1 (11717891_a_at) / Fold change /veh ECM1 (11717891_a_at) / RFU IL23R (11748794_a_at) / Fold change /veh IL23R (11748794_a_at) / RFU TNFAIP8L3 (11732012_x_at) / Fold change /veh TNFAIP8L3 (11732012_x_at) / RFU MBOAT4 (11741988_at) / Fold change /veh MBOAT4 (11741988_at) / RFU 11764193_at / Fold change /veh 11764193_at / RFU TMEM53 (11763286_at) / Fold change /veh TMEM53 (11763286_at) / RFU MAGEB2 (11727129_at) / Fold change /veh MAGEB2 (11727129_at) / RFU TMEM200A (11744735_a_at) / Fold change /veh TMEM200A (11744735_a_at) / RFU CCDC152 (11751479_a_at) / Fold change /veh CCDC152 (11751479_a_at) / RFU FAM211A (11726209_a_at) / Fold change /veh FAM211A (11726209_a_at) / RFU RGS16 (11746705_a_at) / Fold change /veh RGS16 (11746705_a_at) / RFU VCAN (11755009_s_at) / Fold change /veh VCAN (11755009_s_at) / RFU RHOB (11743442_s_at) / Fold change /veh RHOB (11743442_s_at) / RFU RGS16 (11720943_a_at) / Fold change /veh RGS16 (11720943_a_at) / RFU RGS16 (11720944_at) / Fold change /veh RGS16 (11720944_at) / RFU, VPS4B / Fold change vs veh, VPS4B / RFU, CREB1 / Fold change vs veh, CREB1 / RFU, DNAJC13 / Fold change vs veh, DNAJC13 / RFU, GNAQ / Fold change vs veh, GNAQ / RFU, CDK5R1 / Fold change vs veh, CDK5R1 / RFU, ZRANB3 / Fold change vs veh, ZRANB3 / RFU, CUL4A / Fold change vs veh, CUL4A / RFU, CCNY / Fold change vs veh, CCNY / RFU, UFL1 / Fold change vs veh, UFL1 / RFU, COG3 / Fold change vs veh, COG3 / RFU, DIAPH2 / Fold change vs veh, DIAPH2 / RFU, SKA2 / Fold change vs veh, SKA2 / RFU, AFF3 / Fold change vs veh, AFF3 / RFU, LMF1 / Fold change vs veh, LMF1 / RFU, IPO11 / Fold change vs veh, IPO11 / RFU, DFFB / Fold change vs veh, DFFB / RFU, FOXP1 / Fold change vs veh, FOXP1 / RFU, CARD8 / Fold change vs veh, CARD8 / RFU, STRN3 / Fold change vs veh, STRN3 / RFU, ADK / Fold change vs veh, ADK / RFU, RASSF2 / Fold change vs veh, RASSF2 / RFU, WIPF1 / Fold change vs veh, WIPF1 / RFU, LARP1B / Fold change vs veh, LARP1B / RFU, RASA1 / Fold change vs veh, RASA1 / RFU, RB1 / Fold change vs veh, RB1 / RFU, PPFIA1 / Fold change vs veh, PPFIA1 / RFU, MAT2A / Fold change vs veh, MAT2A / RFU, CCT5 / Fold change vs veh, CCT5 / RFU, WDR92 / Fold change vs veh, WDR92 / RFU, CUX1 / Fold change vs veh, CUX1 / RFU, TTC7A / Fold change vs veh, TTC7A / RFU, TMEM135 / Fold change vs veh, TMEM135 / RFU, DEPTOR / Fold change vs veh, DEPTOR / RFU, CPM / Fold change vs veh, CPM / RFU, DNAJB6 / Fold change vs veh, DNAJB6 / RFU, CACNA2D3 / Fold change vs veh, CACNA2D3 / RFU, DTX4 / Fold change vs veh, DTX4 / RFU, TFCP2 / Fold change vs veh, TFCP2 / RFU, GMCL1 /// GMCL1P1 / Fold change vs veh, GMCL1 /// GMCL1P1 / RFU, AEBP2 / Fold change vs veh, AEBP2 / RFU, SNHG1 /// SNORD22 /// SNORD25 /// SNORD26 /// SNORD27 /// SNORD28 /// SNORD29 /// SNORD31 / Fold change vs veh, SNHG1 /// SNORD22 /// SNORD25 /// SNORD26 /// SNORD27 /// SNORD28 /// SNORD29 /// SNORD31 / Fold change (Aza/veh), C12orf56 (ProbeSet 11735607_a_at) / Fold change (ACY-1035/veh), C12orf56 (ProbeSet 11735607_a_at) / Fold change (Aza/veh), FGFR1OP (ProbeSet 11751329_s_at) / Fold change (ACY-1035/veh), FGFR1OP (ProbeSet 11751329_s_at) / Fold change (Aza/veh), VPS36 (ProbeSet 11739960_a_at) / Fold change (ACY-1035/veh), VPS36 (ProbeSet 11739960_a_at) / RFU SYPL1 (11715823_x_at) / Fold change /veh SYPL1 (11715823_x_at) / RFU IGFBP7 (11715501_s_at) / Fold change /veh IGFBP7 (11715501_s_at) / RFU REEP3 (11722064_at) / Fold change /veh REEP3 (11722064_at) / RFU IGLL1 (11728026_x_at) / Fold change /veh IGLL1 (11728026_x_at): dose or concentration left out as unconfirmed
Settings: ProbeSet 11754362_a_at; LIST D

Nc1ccc(-c2cccs2)cc1NC(=O)c1ccc2c(c1)cc(C1CC1)n2CCN1CCOCC1 [ACY-1035]
Fold change vs veh, TTC7A: 0.87
